Reference: patent publication US9051310B2, “Nicotinamide derivative or salt thereof” (FUJIFILM Corporation, priority 2011, dated 2015)

Target: T1, glutathione S-transferase (GST)-linked full-length human Syk protein (Homo sapiens, UniProt P43405)
T1 construct: glutathione S-transferase (GST)-linked full-length human Syk protein; purchased Carna Biosciences; host or cells: Baculovirus expression system
Experiment: Syk enzyme assay
Assay type: biochemical
Settings: 0.83 nM Syk, time-resolved fluorescence; read-out: IC50 of Syk-inhibitory activity
Procedure: A glutathione S-transferase (GST)-linked full-length human Syk protein (Carna Biosciences), which had been generated using a Baculovirus expression system, was used in the Syk enzyme assay.
7.5 μl of a reaction solution (0.83 nM Syk, 20 mM HEPES, 10 mM MgCl2, 50 mM NaCl, 2 mM DTT, 0.05% BSA, pH 7.0) containing a Syk protein and a predetermined concentration of a test compound was shaken for 2 minutes, and it was then left at rest at room temperature for 13 minutes. Thereafter, 0.5 μM substrate peptide (Biotin-[…]-NH2) and 5 μL of a solution containing 67.5 μM ATP were added to the reaction solution, and the obtained mixture was then shaken for 2 minutes. The reaction solution was further left at rest at room temperature for 40 minutes, so as to carry out an enzyme reaction.
Thereafter, 50 μL of a reaction termination solution [60 nM APC-SA, 0.45 μg/mL Eu-PT66, 30 mM HEPES (pH 7.0), 150 mM KF, 30 mM EDTA, 0.15% BSA, 0.075% Tween20] containing Allophycocyanin-Streptavidin (APC-SA; PerkinElmer) and an Eu-W1024-labeled anti-phosphotyrosine PT66 antibody (Eu-PT66; PerkinElmer) was added to the reaction solution to terminate the enzyme reaction. At the same time, the reaction solution was left at rest at room temperature for 1 hour, so as to carry out an antigen-antibody reaction. Thereafter, using EnVision (PerkinElmer), the level of time-resolved fluorescence was measured at 615 nm and 665 nm, so that the phosphorylation of the substrate peptide was measured.
The following are used in Table 5 to denote standards for evaluating IC50 of Syk-inhibitory activity. • A: Up to 10 nM • B: 10 to 50 nM • C: 50 to 100 nM

Row | SMILES | IC50 [nM]
1 | Cc1ncc(Nc2nc(NC3[C@@H](OCc4ccccc4)CCC[C@@H]3N)c(F)cc2C(N)=O)cc1-n1nccn1 (mixture of isomers) [Example 2-484, Mixture of 6-((2-amino-6-(benzyloxy)cyclohexyl)amino)-5-fluoro-2-((6-methyl-5-(2H-1,2,3-triazol-2-yl)pyridin-3-yl)amino)nicotinamide (1S,2S,6S),(1R,2R,6R)] | 10 to 50
2 | Cc1ncc(Nc2nc(N[C@@H]3CC[C@@H](OCc4ccccc4)C[C@@H]3N)c(F)cc2C(N)=O)cc1-n1nccn1 (racemic) [Example 2-528, Mixture of 6-((2-amino-4-(benzyloxy)cyclohexyl)amino)-5-fluoro-2-((6-methyl-5-(2H-1,2,3-triazol-2-yl)pyridin-3-yl)amino)nicotinamide (1R,2S,4R), (1S,2R,4S)] | 50 to 100
3 | Cc1ncc(Nc2nc(N[C@@H]3CC[C@@H](O)C[C@@H]3N)c(F)cc2C(N)=O)cc1-n1nccn1 (racemic) [Example 2-531, Mixture of 6-((2-amino-4-hydroxycyclohexyl)amino)-5-fluoro-2-((6-methyl-5-(2H-1,2,3-triazol-2-yl)pyridin-3-yl)amino)nicotinamide (1R,2S,4R), (1S,2R,4S)] | 10 to 50
4 | Cc1ncc(Nc2nc(N[C@@H]3CCC(F)(F)C[C@@H]3N)c(F)cc2C(N)=O)cc1-n1nccn1 (racemic) [Example 2-564, Mixture of 6-((2-amino-4,4-difluorocyclohexyl)amino)-5-fluoro-2-((6-methyl-5-(2H-1,2,3-triazol-2-yl)pyridin-3-yl)amino)nicotinamide (1R,2S), (1S,2R)] | 10 to 50
5 | Cc1nn(-c2cncc(Nc3nc(N[C@H]4CCCC[C@H]4N)c(F)cc3C(N)=O)c2)nc1C (stereo in doubt) [Example 2-533, 6-(((1S,2R)-2-aminocyclohexyl)amino)-2-((5-(4,5-dimethyl-2H-1,2,3-triazol-2-yl)pyridin-3-yl)amino)-5-fluoronicotinamide] | 50 to 100
6 | CC(C)C[C@@H](Nc1nc(Nc2ccc3c(c2)c(N(C)C)nn3C)c(C(N)=O)cc1F)[C@H](C)N [Example 2-3, 6-(((2S,3R)-2-amino-5-methylhexan-3-yl)amino)-2-((3-(dimethylamino)-1-methyl-1H-indazol-5-yl)amino)-5-fluoronicotinamide] | < 10
7 | CC(C)C[C@@H](Nc1nc(Nc2cccc3c2cnn3C)c(C(N)=O)cc1F)[C@H](C)N [Example 2-12, 6-(((2S,3R)-2-amino-5-methylhexan-3-yl)amino)-5-fluoro-2-((1-methyl-1H-indazol-4-yl)amino)nicotinamide] | < 10
8 | C[C@H](N)[C@@H](CC1CC1)Nc1nc(Nc2ccc3nn(C)c(N(C)C)c3c2)c(C(N)=O)cc1F [Example 2-14, 6-(((2R,3S)-3-amino-1-cyclopropylbutan-2-yl)amino)-2-((3-(dimethylamino)-2-methyl-2H-indazol-5-yl)amino)-5-fluoronicotinamide] | 10 to 50
9 | CC(C)C[C@@H](Nc1nc(Nc2ccc3nn(C)c(N(C)C)c3c2)c(C(N)=O)cc1F)[C@H](C)N [Example 2-15, 6-(((2S,3R)-2-amino-5-methylhexan-3-yl)amino)-2-((3-(dimethylamino)-2-methyl-2H-indazol-5-yl)amino)-5-fluoronicotinamide] | < 10
10 | CC[C@@H](Nc1nc(Nc2ccc3nn(C)c(N(C)C)c3c2)c(C(N)=O)cc1F)[C@H](C)N [Example 2-16, 6-(((2S,3R)-2-aminopentan-3-yl)amino)-2-((3-(dimethylamino)-2-methyl-2H-indazol-5-yl)amino)-5-fluoronicotinamide] | 10 to 50
11 | COc1cc(Nc2nc(N[C@H](C3CCC3)[C@H](C)N)c(F)cc2C(N)=O)ccc1C [Example 2-30, 6-(((1R,2S)-2-amino-1-cyclobutylpropyl)amino)-5-Fluoro-2-((3-methoxy-4-methylphenyl)amino)nicotinamide] | < 10
12 | CC[C@@H](Nc1nc(Nc2ccnc(OCCOC)c2)c(C(N)=O)cc1F)[C@H](C)N [Example 2-34, 6-(((2S,3R)-2-aminopentan-3-yl)amino)-5-fluoro-2-((2-(2-methoxyethoxy)pyridin-4-yl)amino)nicotinamide] | 10 to 50
13 | CC[C@H](N)[C@@H](C)Nc1nc(Nc2cnc(C)c(C)c2)c(C(N)=O)cc1F [Example 2-35, 6-(((2R,3S)-3-aminopentan-2-yl)amino)-2-((5,6-dimethylpyridin-3-yl)amino)-5-fluoronicotinamide] | 10 to 50
14 | COc1nn(CC(F)F)c2ccc(Nc3nc(N[C@H](CC4CC4)[C@H](C)N)c(F)cc3C(N)=O)cc12 [Example 2-53, 6-(((2R,3S)-3-amino-1-cyclopropylbutan-2-yl)amino)-2-((1-(2,2-difluoroethyl)-3-methoxy-1H-indazol-5-yl)amino)-5-fluoronicotinamide] | < 10
15 | CC[C@@H](Nc1nc(Nc2ccc3c(c2)c(OC)nn3CC(F)F)c(C(N)=O)cc1F)[C@H](C)N [Example 2-55, 6-(((2S,3R)-2-aminopentan-3-yl)amino)-2-((1-(2,2-difluoroethyl)-3-methoxy-1H-indazol-5-yl)amino)-5-fluoronicotinainide] | < 10
16 | C[C@H](N)[C@H](Nc1nc(Nc2ccc(F)c(F)c2)c(C(N)=O)cc1F)C1CC1 [Example 2-59, 6-(((1R,2S)-2-amino-1-cyclopropylpropyl)amino)-2-((3,4-difluorophenyl)amino)-5-fluoronicotinamide] | 10 to 50
17 | C[C@H](N)[C@H](Nc1nc(Nc2ccc(F)cc2)c(C(N)=O)cc1F)C1CCC1 [Example 2-60, 6-(((1R,2S)-2-amino-1-cyclobutylpropyl)amino)-5-fluoro-2-((4-fluorophenyl)amino)nicotinamide] | 10 to 50
18 | C[C@H](N)[C@H](Nc1nc(Nc2ccc(F)c(F)c2)c(C(N)=O)cc1F)C1CCC1 [Example 2-61, 6-(((1R,2S)-2-amino-1-cyclobutylpropyl)amino)-2-((3,4-difluorophenyl)amino)-5-fluoronicotinamide] | 10 to 50
19 | COc1ncc(Nc2nc(N[C@H](C3CC3)[C@H](C)N)c(F)cc2C(N)=O)cc1F [Example 2-62, 6-(((1R,2S)-2-amino-1-cyclopropylpropyl)amino)-5-fluoro-2-((5-fluoro-6-methoxypyridin-3-yl)amino)nicotinamide.] | 10 to 50
20 | COc1ncc(Nc2nc(N[C@H](C3CCC3)[C@H](C)N)c(F)cc2C(N)=O)cc1F [Example 2-63, 6-(((1R,2S)-2-amino-1-cyclobutylpropyl)amino)-5-fluoro-2-((5-fluoro-6-methoxypyridin-3-yl)amino)nicotinamide.] | 10 to 50
21 | CC[C@@H](Nc1nc(Nc2cnc(OC)c(F)c2)c(C(N)=O)cc1F)[C@H](C)N [Example 2-64, 6-(((2S,3R)-2-aminopentan-3-yl)amino)-5-fluoro-2-((5-fluoro-6-methoxypyridin-3-yl)amino)nicotinamide] | 10 to 50
22 | CCC[C@@H](Nc1nc(Nc2cnc(OC)c(F)c2)c(C(N)=O)cc1F)[C@H](C)N [Example 2-65, 6-(((2S,3R)-2-aminohexan-3-yl)amino)-5-fluoro-2-((5-fluoro-6-methoxypyridin-3-yl)amino)nicotinamide] | 10 to 50
23 | NC(=O)c1cc(F)c(N[C@@H]2CCCC[C@@H]2N)nc1Nc1cnc(-n2ccnn2)c(F)c1 [Example 2-68, 6-(((1R,2S)-2-aminocyclohexyl)amino)-5-fluoro-2-((5-fluoro-6-(1H-1,2,3-triazol-1-yl)pyridin-3-yl)amino)nicotinamide] | 10 to 50
24 | COc1nn(C)c2ccc(Nc3nc(N[C@H](C(C)C)[C@H](C)N)c(F)cc3C(N)=O)cc12 [Example 2-81, 6-(((2S,3R)-2-amino-4-methylpentan-3-yl)amino)-5-fluoro-2-((3-methoxy-1-methyl-1H-indazol-5-yl)amino)nicotinamide] | 10 to 50
25 | CC(C)C[C@H](CN)Nc1nc(Nc2ccc3c(c2)c(N(C)C)nn3C)c(C(N)=O)cc1F [Example 2-86, (R)-6-((1-amino-4-methylpentan-2-yl)amino)-2-((3-(dimethylamino)-1-methyl-1H-indazol-5-yl)amino)-5-fluoronicotinamide] | < 10
26 | CCCC[C@@H](Nc1nc(Nc2ccc3c(c2)c(N(C)C)nn3C)c(C(N)=O)cc1F)[C@H](C)N [Example 2-90, 6-(((2S,3R)-2-aminoheptan-3-yl)amino)-2-((3-(dimethylamino)-1-methyl-1H-indazol-5-yl)amino)-5-fluoronicotinamide] | 10 to 50
27 | CC[C@H](N)[C@@H](CC)Nc1nc(Nc2ccc3c(c2)c(N(C)C)nn3C)c(C(N)=O)cc1F [Example 2-92, 6-(((3R,4S)-4-aminohexan-3-yl)amino) 2-((3-(dimethylamino)-1-methyl-1H-indazol-5-yl)amino)-5-fluoronicotinamide] | 10 to 50
